# Patent US7217726B2, “Antibacterial agents” (Orchid Chemicals & Pharmaceuticals Limited, priority 2002, dated 2007)
# Tests used:
# [1] = tested on: S. aureus ATCC 43300; test: Agar Dilution Method MIC, S. aureus ATCC 43300; format: cell-based; details: Staphylococcus aureus, ATCC43300, Mueller Hinton Agar, 35° Celsius, 20 hours, read-out: Minimum Inhibitory Concentration (MIC in μg/ml)
# Method: (§1) Briefly, the compounds of invention were weighed, dissolved in Dimethyl Sulfoxide, serially diluted in the same solvent and then incorporated into molten Mueller Hinton Agar in a petridish before solidification, with each petridish containing a different concentration of a compound.
# (§2) The Bacterial Inoculum was prepared by touching the tops of 3 to 5 well isolated bacterial colonies with the same morphological appearance from an 18 hour old culture with an inoculating loop, transfering the growth to a tube containing 5 ml of normal saline and adjusting the turbidity of the saline suspension to 0.5 Macfarland Turbidity Standard equivalent to a bacterial population of 1.5×10^8 colony forming units (CFU) per millilitre of suspension.
# (§3) The bacterial inoculum prepared in the above manner was inoculated onto petri dishes containing Mueller Hinton Agar which had earlier been incorporated with different dilutions of the compounds of invention by a Multipoint Inoculator with each inoculum spot containing approximately 1×10^4 colony forming units (CFU) of bacteria.
# (§4) The inoculated petridishes were incubated at 35° Celsius in an ambient atmosphere for 20 hours. Petridishes containing different concentrations of Vancomycin and Oxacillin and inoculated with Staphylococcus aureus, Coagulase Negative Staphylococci and Enterococci were incubated for 24 hours.
# [2] = tested on: S. aureus MRO 00003; test: Agar Dilution Method MIC, S. aureus MRO 00003; format: cell-based; details: Staphylococcus aureus, MRO00003, Mueller Hinton Agar, 35° Celsius, 20 hours, read-out: Minimum Inhibitory Concentration (MIC in μg/ml)
# Method: as §1, §2, §3, §4
# [3] = tested on: E. fecalis MRO 04045; test: Agar Dilution Method MIC, E. fecalis MRO 04045; format: cell-based; details: Enterococcus faecalis, MRO04045, Mueller Hinton Agar, 35° Celsius, 20 hours, read-out: Minimum Inhibitory Concentration (MIC in μg/ml)
# Method: as §1, §2, §3, §4
# [4] = tested on: E. faecalis ATCC 29212; test: Agar Dilution Method MIC, E. faecalis ATCC 29212; format: cell-based; details: Enterococcus faecalis, ATCC29212, Mueller Hinton Agar, 35° Celsius, 20 hours, read-out: Minimum Inhibitory Concentration (MIC in μg/ml)
# Method: as §1, §2, §3, §4
# [5] = tested on: S. aureus MRO 00013; test: Agar Dilution Method MIC, S. aureus MRO 00013; format: cell-based; details: Staphylococcus aureus, MRO00013, Mueller Hinton Agar, 35° Celsius, 20 hours, read-out: Minimum Inhibitory Concentration (MIC in μg/ml)
# Method: as §1, §2, §3, §4
# [6] = tested on: S. aureus MRO 00030; test: Agar Dilution Method MIC, S. aureus MRO 00030; format: cell-based; details: Staphylococcus aureus, MRO00030, Mueller Hinton Agar, 35° Celsius, 20 hours, read-out: Minimum Inhibitory Concentration (MIC in μg/ml)
# Method: as §1, §2, §3, §4
# [7] = tested on: S. aureus MRO 00001; test: Agar Dilution Method MIC, S. aureus MRO 00001; format: cell-based; details: Staphylococcus aureus, MRO00001, Mueller Hinton Agar, 35° Celsius, 20 hours, read-out: Minimum Inhibitory Concentration (MIC in μg/ml)
# Method: as §1, §2, §3, §4
# [8] = tested on: M. catarrhalis ATCC 43628; test: Agar Dilution Method MIC, M. catarrhalis ATCC 43628; format: cell-based, Morexella catarrhalis; details: Moraxella catarrhalis, ATCC43628, Mueller Hinton Agar, 35° Celsius, 20 hours, read-out: Minimum Inhibitory Concentration (MIC in μg/ml)
# Method: as §1, §2, §3, §4
# [9] = tested on: S. aureus MRO 00048; test: Agar Dilution Method MIC, S. aureus MRO 00048; format: cell-based; details: Staphylococcus aureus, MRO00048, Mueller Hinton Agar, 35° Celsius, 20 hours, read-out: Minimum Inhibitory Concentration (MIC in μg/ml)
# Method: as §1, §2, §3, §4
# [10] = tested on: S. aureus ATCC 29213; test: Agar Dilution Method MIC, S. aureus ATCC 29213; format: cell-based; details: Staphylococcus aureus, ATCC29213, Mueller Hinton Agar, 35° Celsius, 20 hours, read-out: Minimum Inhibitory Concentration (MIC in μg/ml)
# Method: as §1, §2, §3, §4
# [11] = tested on: M. catarrhalis ATCC 43627; test: Agar Dilution Method MIC, M. catarrhalis ATCC 43627; format: cell-based, Morexella catarrhalis; details: Moraxella catarrhalis, ATCC43627, Mueller Hinton Agar, 35° Celsius, 20 hours, read-out: Minimum Inhibitory Concentration (MIC in μg/ml)
# Method: as §1, §2, §3, §4
# [12] = tested on: M. catarrhalis ATCC 43617; test: Agar Dilution Method MIC, M. catarrhalis ATCC 43617; format: cell-based, Morexella catarrhalis; details: Moraxella catarrhalis, ATCC43617, Mueller Hinton Agar, 35° Celsius, 20 hours, read-out: Minimum Inhibitory Concentration (MIC in μg/ml)
# Method: as §1, §2, §3, §4
# [13] = tested on: E. faecalis ATCC 51299; test: Agar Dilution Method MIC, E. faecalis ATCC 51299; format: cell-based; details: Enterococcus faecalis, ATCC51299, Mueller Hinton Agar, 35° Celsius, 20 hours, read-out: Minimum Inhibitory Concentration (MIC in μg/ml)
# Method: as §1, §2, §3, §4
# [14] = tested on: S. epidermidis MRO 02046; test: Agar Dilution Method MIC, S. epidermidis MRO 02046; format: cell-based; details: Staphylococcus epidermidis, MRO02046, Mueller Hinton Agar, 35° Celsius, 20 hours, read-out: Minimum Inhibitory Concentration (MIC in μg/ml)
# Method: as §1, §2, §3, §4
# [15] = tested on: S. aureus MRO 00055; test: Agar Dilution Method MIC, S. aureus MRO 00055; format: cell-based; details: Staphylococcus aureus, MRO00055, Mueller Hinton Agar, 35° Celsius, 20 hours, read-out: Minimum Inhibitory Concentration (MIC in μg/ml)
# Method: as §1, §2, §3, §4
# [16] = tested on: S. aureus MRO 00059; test: Agar Dilution Method MIC, S. aureus MRO 00059; format: cell-based; details: Staphylococcus aureus, MRO00059, Mueller Hinton Agar, 35° Celsius, 20 hours, read-out: Minimum Inhibitory Concentration (MIC in μg/ml)
# Method: as §1, §2, §3, §4
SMILES,melting point [°C],MIC [1] [µg/mL],MIC [2] [µg/mL],MIC [3] [µg/mL],MIC [4] [µg/mL],MIC [5] [µg/mL],MIC [6] [µg/mL],MIC [7] [µg/mL],MIC [8] [µg/mL],MIC [9] [µg/mL],MIC [10] [µg/mL],MIC [11] [µg/mL],MIC [12] [µg/mL],MIC [13] [µg/mL],MIC [14] [µg/mL],MIC [15] [µg/mL],MIC [16] [µg/mL]
CC(=O)NC[C@H]1CN(c2ccc(N3CCN(C(=S)CN)CC3)c(F)c2)C(=O)O1.Cl,202 to 204,–,–,–,–,–,–,–,–,–,–,–,–,–,–,–,–
"CC(=S)NC[C@H]1CN(c2ccc(N3CCN(C(=S)c4ncc[nH]4)CC3)c(F)c2)C(=O)O1 [Example 22, (S)-N-[3-[3-Fluoro-4-[4-(imidazol-2-ylthiocarbonyl)piperazin-1-yl]phenyl]-2-oxooxazolidin-5-ylmethyl]thioacetamide]",–,0.5,0.5,1,0.5,1,0.5,0.5,1,< 0.25,0.5,1,1,< 0.25,< 0.25,1,0.5
"CC(=S)NC[C@H]1CN(c2ccc(N3CCN(C(=S)c4ccc([N+](=O)[O-])o4)CC3)c(F)c2)C(=O)O1 [Example 5, (S)-N-[3-[3-Fluoro-4-[4-(5-nitrofuran-2-ylthiocarbonyl)piperazin-1-yl]phenyl]-2-oxooxazolidin-5-ylmethyl]thioacetamide]",–,0.25,0.5,1,0.5,0.5,0.5,0.5,0.5,0.25,0.5,1,0.5,0.5,0.25,0.5,0.5
